US20260207623A1, “USE OF ESTETROL IN HEPATICALLY IMPAIRED PATIENTS” (ESTETRA SRL, priority 2022, published 2026)

System: female subjects with normal hepatic function, mild, moderate or severe hepatic impairment
Assay: Safety and tolerability (TEAEs, clinical laboratory, vital signs, physical examination) after a single oral dose of 20 mg E4 monohydrate in the hepatic impairment study
Type: in vivo, human
Conditions: single oral 20 mg
Protocol: This was a Phase 1, multi-centre, open-label, PK, and safety study of a single oral dose of 20 mg E4 monohydrate in female subjects with normal hepatic function (Group 1), mild hepatic impairment (Group 2), moderate hepatic impairment (Group 3), and severe hepatic impairment (Group 4), as defined using the Child-Pugh classification at Screening.
Safety and tolerability assessments consisted of treatment-emergent AEs (TEAEs), clinical laboratory, vital signs, physical examination, and gynecological examination. Assessments were performed in accordance with Table 2 and Table 3 in Section 2.5.1.
AEs/TEAEs were recorded after signing of the ICF until completion of the follow up visit. Any clinically significant observations in results of clinical laboratory, vital signs, or physical examinations were recorded as AEs.
A TEAE is defined as any event not present prior to administration of the study drug or any event already present that worsens in either severity or frequency following exposure to the study drug.
The below listed tests were to be performed by the local laboratories at time points indicated in the Schedule of Assessments (Table 2).
Systolic and diastolic blood pressure and pulse were recorded after the subject had been resting for at least 5 minutes in the supine position at time points indicated in the Schedule of Assessments (Table 2). These assessments were made using an automated device. Body temperature and respiratory rate were measured subsequently.
A complete physical examination consisting of a review of all body systems was performed at time points indicated in the Schedule of Assessments (Table 2). A symptom-directed physical examination could be conducted at any time per Investigator's discretion.
2.6.2.2 Evaluation of Safety and Tolerability Safety and tolerability were assessed through TEAEs, clinical laboratory, vital signs, and physical examination findings, and any other parameter that was relevant for safety assessment.
A listing of all individual AEs is provided. Summary tables of TEAEs are presented by system organ class (SOC) based on the MedDRA terminology list (preferred terms): a table containing the number of subjects experiencing AEs by hepatic function, a table containing the number of subjects experiencing SAEs by hepatic function (if applicable), a table by hepatic function and relationship, and a table by hepatic function and severity.

[1] = Mild hepatic impairment (N = 8)
[2] = Moderate hepatic impairment (N = 8)
[3] = Normal hepatic function (N = 8)

## C[C@]12CC[C@@H]3c4ccc(O)cc4CC[C@H]3[C@@H]1[C@@H](O)[C@@H](O)[C@@H]2O [E4 monohydrate, estetrol monohydrate]
[1]
  TEAE by severity: Back pain, severity Mild: 0 (0.0) n (%)
  TEAE by severity: Back pain, severity Moderate: 0 (0.0) n (%)
  TEAE by severity: Diarrhea, severity Mild: 0 (0.0) n (%)
  TEAE by severity: Diarrhea, severity Moderate: 0 (0.0) n (%)
  TEAE by severity: Gastrointestinal disorders, severity Mild: 0 (0.0) n (%)
  TEAE by severity: Gastrointestinal disorders, severity Moderate: 0 (0.0) n (%)
  TEAE by severity: General disorders and administration site conditions, severity Mild: 0 (0.0) n (%)
  TEAE by severity: Haemarthrosis, severity Mild: 1 (12.5) n (%)
  TEAE by severity: Headache, severity Mild: 0 (0.0) n (%)
  TEAE by severity: Headache, severity Moderate: 0 (0.0) n (%)
  TEAE by severity: Hypertension, severity Mild: 2 (25.0) n (%)
  TEAE by severity: Musculoskeletal and connective tissue disorders, severity Mild: 1 (12.5) n (%)
  TEAE by severity: Musculoskeletal and connective tissue disorders, severity Moderate: 0 (0.0) n (%)
  TEAE by severity: Nervous system disorders, severity Mild: 0 (0.0) n (%)
  TEAE by severity: Nervous system disorders, severity Moderate: 0 (0.0) n (%)
  TEAE by severity: Pain in extremity, severity Mild: 0 (0.0) n (%)
  TEAE by severity: Pancreatitis, severity Moderate: 0 (0.0) n (%)
  TEAE by severity: Pyrexia, severity Mild: 0 (0.0) n (%)
  TEAE by severity: Renal and urinary disorders, severity Mild: 0 (0.0) n (%)
  TEAE by severity: Renal impairment, severity Mild: 0 (0.0) n (%)
  TEAE by severity: Vascular disorders, severity Mild: 2 (25.0) n (%)
  TEAE: Back pain: 0 (0.0) n (%)
  TEAE: Diarrhea: 0 (0.0) n (%)
  TEAE: Gastrointestinal disorders: 0 (0.0) n (%)
  TEAE: General disorders and administration site conditions: 0 (0.0) n (%)
  TEAE: Haemarthrosis: 1 (12.5) n (%)
  TEAE: Headache: 0 (0.0) n (%)
  TEAE: Hypertension: 2 (25.0) n (%)
  TEAE: Musculoskeletal and connective tissue disorders: 1 (12.5) n (%)
  TEAE: Nervous system disorders: 0 (0.0) n (%)
  TEAE: Pain in extremity: 0 (0.0) n (%)
  TEAE: Pancreatitis: 0 (0.0) n (%)
  TEAE: Pyrexia: 0 (0.0) n (%)
  TEAE: Renal and urinary disorders: 0 (0.0) n (%)
  TEAE: Renal impairment: 0 (0.0) n (%)
  TEAE: Total Subjects with at Least One TEAE: 2 (25.0) n (%)
  TEAE: Vascular disorders: 2 (25.0) n (%)
[2]
  TEAE by severity: Back pain, severity Mild: 0 (0.0) n (%)
  TEAE by severity: Back pain, severity Moderate: 0 (0.0) n (%)
  TEAE by severity: Diarrhea, severity Mild: 2 (25.0) n (%)
  TEAE by severity: Diarrhea, severity Moderate: 0 (0.0) n (%)
  TEAE by severity: Gastrointestinal disorders, severity Mild: 2 (25.0) n (%)
  TEAE by severity: Gastrointestinal disorders, severity Moderate: 0 (0.0) n (%)
  TEAE by severity: General disorders and administration site conditions, severity Mild: 1 (12.5) n (%)
  TEAE by severity: Haemarthrosis, severity Mild: 0 (0.0) n (%)
  TEAE by severity: Headache, severity Mild: 1 (12.5) n (%)
  TEAE by severity: Headache, severity Moderate: 1 (12.5) n (%)
  TEAE by severity: Hypertension, severity Mild: 0 (0.0) n (%)
  TEAE by severity: Musculoskeletal and connective tissue disorders, severity Mild: 1 (12.5) n (%)
  TEAE by severity: Musculoskeletal and connective tissue disorders, severity Moderate: 0 (0.0) n (%)
  TEAE by severity: Nervous system disorders, severity Mild: 1 (12.5) n (%)
  TEAE by severity: Nervous system disorders, severity Moderate: 1 (12.5) n (%)
  TEAE by severity: Pain in extremity, severity Mild: 1 (12.5) n (%)
  TEAE by severity: Pancreatitis, severity Moderate: 0 (0.0) n (%)
  TEAE by severity: Pyrexia, severity Mild: 1 (12.5) n (%)
  TEAE by severity: Renal and urinary disorders, severity Mild: 0 (0.0) n (%)
  TEAE by severity: Renal impairment, severity Mild: 0 (0.0) n (%)
  TEAE by severity: Vascular disorders, severity Mild: 0 (0.0) n (%)
  TEAE: Back pain: 0 (0.0) n (%)
  TEAE: Diarrhea: 2 (25.0) n (%)
  TEAE: Gastrointestinal disorders: 2 (25.0) n (%)
  TEAE: General disorders and administration site conditions: 1 (12.5) n (%)
  TEAE: Haemarthrosis: 0 (0.0) n (%)
  TEAE: Headache: 2 (25.0) n (%)
  TEAE: Hypertension: 0 (0.0) n (%)
  TEAE: Musculoskeletal and connective tissue disorders: 1 (12.5) n (%)
  TEAE: Nervous system disorders: 2 (25.0) n (%)
  TEAE: Pain in extremity: 1 (12.5) n (%)
  TEAE: Pancreatitis: 0 (0.0) n (%)
  TEAE: Pyrexia: 1 (12.5) n (%)
  TEAE: Renal and urinary disorders: 0 (0.0) n (%)
  TEAE: Renal impairment: 0 (0.0) n (%)
  TEAE: Total Subjects with at Least One TEAE: 4 (50.0) n (%)
  TEAE: Vascular disorders: 0 (0.0) n (%)
[3]
  TEAE by severity: Back pain, severity Mild: 0 (0.0) n (%)
  TEAE by severity: Back pain, severity Moderate: 1 (12.5) n (%)
  TEAE by severity: Diarrhea, severity Mild: 0 (0.0) n (%)
  TEAE by severity: Diarrhea, severity Moderate: 1 (12.5) n (%)
  TEAE by severity: Gastrointestinal disorders, severity Mild: 0 (0.0) n (%)
  TEAE by severity: Gastrointestinal disorders, severity Moderate: 2 (25.0) n (%)
  TEAE by severity: General disorders and administration site conditions, severity Mild: 0 (0.0) n (%)
  TEAE by severity: Haemarthrosis, severity Mild: 0 (0.0) n (%)
  TEAE by severity: Headache, severity Mild: 0 (0.0) n (%)
  TEAE by severity: Headache, severity Moderate: 0 (0.0) n (%)
  TEAE by severity: Hypertension, severity Mild: 0 (0.0) n (%)
  TEAE by severity: Musculoskeletal and connective tissue disorders, severity Mild: 0 (0.0) n (%)
  TEAE by severity: Musculoskeletal and connective tissue disorders, severity Moderate: 1 (12.5) n (%)
  TEAE by severity: Nervous system disorders, severity Mild: 0 (0.0) n (%)
  TEAE by severity: Nervous system disorders, severity Moderate: 0 (0.0) n (%)
  TEAE by severity: Pain in extremity, severity Mild: 0 (0.0) n (%)
  TEAE by severity: Pancreatitis, severity Moderate: 1 (12.5) n (%)
  TEAE by severity: Pyrexia, severity Mild: 0 (0.0) n (%)
  TEAE by severity: Renal and urinary disorders, severity Mild: 0 (0.0) n (%)
  TEAE by severity: Renal impairment, severity Mild: 0 (0.0) n (%)
